Assay results published in patent US9314536B2, “Compounds and methods for the treatment of EGFR positive diseases” (Bio-Thera Solutions, Ltd., Co., priority 2012, dated 2016).

Tests used:
[1] = tested on: tubulin; experiment: HTS-Tubulin Polymerization Assay Kit, tubulin polymerization in vitro; format: biochemical; conditions: 1 μM stock, 10 μL added to 100 μL 4 mg/ml tubulin, 37° C., 405 nm; compared with the PBS buffer
Method: The effect of 3AA-MDC, 206-3AA-MDC (206 is an anit-EGFR antibody containing a light chain with sequence shown in Seq ID 1 and a heavy chain with amino acid sequence shown in Seq ID 2, and it was prepared as described in example 7) and the metabolites (Cys-3AA-MDC and Lys-mcc-MDC) of prodrug antibody maytansinoid conjugates on the tubulin polymerization in vitro was assessed by HTS-Tubulin Polymerization Assay Kit (BK004P, Cytoskeleton, Inc., USA). According to the instruction of kit, pre-warm the 96-well plate to 37° C. for 30 min prior to starting the assay. At the same time, the spectrophotometer (SpectraMax, Molecular Devices, USA) was set as follow: wavelength, 405 nm; temperature, 37° C.; Kinetic, 31 cycles of 1 reading per minute. Make cold G-PEM buffer (990 μL General Tubulin Buffer+10 μL GTP Stock) and keep it on ice. Prepare 4 mg/mL tubulin, 1 μM L-3AA-MDC (N2′-deacetyl-N2′-(6-maleimido-1-oxo-hexyl)maytansine), 1 μM 206-3AA-MDC, 1 μM cys-3AA-MDC, 1 μM lys-mcc-MDC, 100 μM Paclitaxel, and 100 μM Nocodazole. Add 10 μL G-PEM, 3AA-MDC, 206-3AA-MDC, cys-3AA-MDC, lys-mcc-MDC, Paclitaxel, Nocodazole into the wells, and then add 100 μL 4 mg/ml tubulin to each well. Immediately place the plate into the spectrophotometer and start recording using the kinetic setup described above. […] Nocodazole, the tubulin polymerization inhibitor, was set as a negative control. […]

[2] = tested on: human acute lymphoblastic leukemia line C.E.M.; conditions: cited from earlier work
[3] = versus methotrexate, daunorubicin, and vincristine; cited from earlier work

Row | Compound | inhibition of tubulin polymerization [1] | inhibitory concentration (as low as) [2] | fold more cytotoxic than conventional chemotherapeutic agents [3]
1 | COc1cc2cc(c1Cl)N(C)C(=O)C[C@H](OC(=O)[C@H](C)N(C)C(=O)CCCCCN1C(=O)C=CC1=O)[C@]1(C)OC1[C@H](C)[C@@H]1C[C@@](O)(NC(=O)O1)[C@H](OC)/C=C/C=C(\C)C2 (stereo partly shown) [3AA-MDC, N2′-deacetyl-N2′-(6-maleimido-1-oxo-hexyl)-maytansine] | more significantly inhibited the tubulin polymerization |  | 
2 | COc1cc2cc(c1Cl)N(C)C(=O)C[C@H](OC(=O)[C@H](C)N(C)C(=O)CCSC1CC(=O)N(CC3CCC(C(=O)NCCCC[C@H](N)C(=O)O)CC3)C1=O)[C@]1(C)O[C@H]1[C@H](C)[C@@H]1C[C@@](O)(NC(=O)O1)[C@H](OC)/C=C/C=C(\C)C2 (stereo partly shown) [Lys-mcc-MDC] | more significantly inhibited the tubulin polymerization |  | 
3 | COc1cc2cc(c1Cl)N(C)C(=O)C[C@H](OC(=O)[C@H](C)N(C)C(C)=O)[C@]1(C)O[C@H]1[C@H](C)[C@@H]1C[C@@](O)(NC(=O)O1)[C@H](OC)/C=C/C=C(\C)C2 [Maytansine] |  | 10^−7 mg/mL | 100- to 1000 fold
